Assay results published in PMC2011259, “Pentamethylmelamine (PMM): Phase I clinical and pharmacokinetic studies” (British Journal of Cancer, 1983).

Legend:
[1] = oral HMM 120-300 mg m-2, n = 9 (9/11 patients), mean + SEM; ref D'Incalci et al. (1978); cited from earlier work
[2] = Pharmacokinetic studies: plasma levels of PMM, TMM and TRIMM by gas liquid chromatography; type: in vivo, man; details: for Quantity of metabolite in plasma / Detection as PMM metabolite in plasma: after i.v. PMM; for Detection as PMM metabolite in plasma: patients studied; for Plasma concentration relative to parent drug: patients with normal liver function, 2 h after the end of the infusion
Description: Br. J. Cancer (1983), 47, 027-033 Pentamethylmelamine (PMM): Phase I clinical and pharmacokinetic studies J.R.F. Muindi*, D.R. Newellt, I.E. Smith* & K.R. Harrapt *Division of Medicine, Institute of Cancer Research and Royal Marsden Hospital, and the tDepartment of Biochemical Pharmacology, Institute of Cancer Research, Sutton, Surrey. […] PMM has been administered as an intravenous infusion to 17 patients in a Phase I clinical trial. […] In the present study the results of the Phase I clinical evaluation of PMM at the Royal Marsden Hospital are reported. In addition to the clinical assessment of patients, pharmacokinetic studies were also performed. […] (Broggini et al., 1981; Morimoto et al., 1980; Ames et al., 1979; Casper et al., 1981; Idhe et al., 1981; Benvenuto et al., 1981; Rutty et al., 1982). […] The mechanism of action of N-methylolmelamines is, however, still uncertain. To ascertain the rate and extent of PMM metabolism in man, plasma levels of the parent drug and the first two products of oxidative N- demethylation i.e. N2,N2,N4,N6-tetramethyl- melamine (TMM) and N2,N4,N6-trimethylmelamine (TRIMM) were measured (Figure 2). […] Materials and methods Patient selection The patients entered in the PMM Phase I clinical study were all under the care of the Royal Marsden Hospital. […] Additional criteria required for eligibility to enter into the study included: WBC and platelet count > 3000 uM I-' and > 100,000 pM 11 respectively; blood urea and serum creatinine < 8 mM ,M I1- and < 106 pM 1 respectively. None of the patients had received cancer chemotherapy or radiotherapy during the 3-week period preceding their entry into the study. […] The treatment protocol was approved by the Ethical Committee of the Royal Marsden Hospital and informed consent was obtained from all patients prior to entry into the study. […] It was supplied by Prof. W.C.J. Ross of the Chester Beatty Research Institute, London, as a white crystalline powder. PMM (2mg ml-') was infused intravenously as a 2% ethanol 5% dextrose solution after micropore (0.22 pm) filtration. All formulated PMM infusions were used within 24h of preparation, as a sterility precaution. PMM was initially given at a dose of […] and the dose escalated to 1300mgm-2 according to a modified Fibonacci scheme (Table II). At higher PMM doses, requiring large infusion volumes, the infusion time was extended from 1 to 4 h. No dose escalation was TRIMM CH3 Nc"N H 11 H Ii N N H CH3 HCHO 1. carried out in the same patient.

[3] = patient eight, PMM dose 300 mg m-2 i.v., hepatic function abnormal
[4] = patient five, PMM dose 200 mg m-2 i.v., hepatic function abnormal
[5] = patient four, PMM dose 200 mg m-2 i.v., hepatic function normal
[6] = patient one, PMM dose 300 mg m-2 i.v., hepatic function normal
[7] = patient seven, PMM dose 500 mg m-2 i.v., hepatic function normal
[8] = patient six, PMM dose 100 mg m-2 i.v., hepatic function normal
[9] = patient three, PMM dose 500 mg m-2 i.v., hepatic function abnormal
[10] = patient two, PMM dose 100 mg m-2 i.v., hepatic function normal

Structure (SMILES)	Quantity of metabolite in plasma [2]	Detection as PMM metabolite in plasma [2]	Area under the plasma conc. v. time curve [2, 3] [IM x min]	Area under the plasma conc. v. time curve [2, 4] [IM x min]	Area under the plasma conc. v. time curve [2, 5] [IM x min]	Area under the plasma conc. v. time curve [2, 6] [IM x min]	Area under the plasma conc. v. time curve [2, 7] [IM x min]	Area under the plasma conc. v. time curve [2, 8] [IM x min]	Area under the plasma conc. v. time curve [2, 9] [IM x min]	Area under the plasma conc. v. time curve [2, 10] [IM x min]	Plasma concentration relative to parent drug [2]	other results
CN(C)c1nc(N(C)C)nc(N(C)C)n1 [HMM, hexamethylmelamine]	–	–	–	–	–	–	–	–	–	–	–	HMM AUC 0-12h [1]: 763 +163 iMxmin
CN(C)c1nc(N)nc(N(C)C)n1 [N2,N2,N4,N4-tetramethylmelamine]	minor quantities	–	–	–	–	–	–	–	–	–	–	–
CNc1nc(N)nc(N(C)C)n1 [N2,N2,N4-trimethylmelamine]	minor quantities	–	–	–	–	–	–	–	–	–	–	–
CNc1nc(N)nc(NC)n1 [N2,N4-dimethylmelamine]	–	observed	–	–	–	–	–	–	–	–	–	–
CNc1nc(NC)nc(N(C)C)n1 [TMM, N2,N2,N4,N6-tetramethylmelamine]	–	detected	2121	1804	397	3697	2693	204	6206	151	greater concentrations than the parent drug	–
CNc1nc(NC)nc(NC)n1 [TRIMM, N2,N4,N6-trimethylmelamine]	–	detected	627	1438	1070	4091	3710	573	7995	189	greater concentrations than the parent drug	–
